# According to ChEMBL document CHEMBL4616604, “Comparing a thioglycosylated chlorin and phthalocyanine as potential theranostic agents” (Bioorg Med Chem, 2020):
# pIC50: −log10 of the molar value.
# Experiments:
# [1] = Time dependent drug uptake in human MDA-MB-231 cells at 10 uM incubated up to 24 hrs by spectrofluorometric analysis; assay type: ADME, cell-based; settings: mda-mb-231, 24 h
# [2] = Drug uptake in athymic mouse xenografted with HNSCC cells at 0.1 mM administered iv measured up to 4 days post-drug administration by IVIS spectrum in vivo fluorescence imaging analysis; assay type: ADME, organism-based; settings: 96 h, 100 µM
# [3] = Drug uptake in human MCF7 cells at 1 uM incubated for 24 hrs by fluorescence imaging analysis; assay type: ADME, cell-based; settings: mcf7, 24 h
# [4] = Time dependent drug uptake in human MCF7 cells at 10 uM incubated up to 24 hrs by spectrofluorometric analysis; assay type: ADME, cell-based; settings: mcf7, 24 h
# MCF7 [5] = test: Dark cytotoxicity against human MCF7 cells assessed as inhibition of cell viability incubated for 24 hrs by CellTiter Blue assay; assay type: cell-based; settings: MCF7, 24 h
# MCF7 [6] = test: Phototoxicity against human MCF7 cells assessed as inhibition of cell viability incubated with compound for 2 hrs followed by irradiation with 0.92 mW cm'-2 light and measured after overnight incubation by CellTiter Blue assay; assay type: functional, cell-based; settings: MCF7, light or radiation study
# MDA-MB-231 [7] = test: Dark cytotoxicity against human MDA-MB-231 cells assessed as inhibition of cell viability incubated for 24 hrs by CellTiter Blue assay; assay type: cell-based; settings: MDA-MB-231, 24 h
# MDA-MB-231 [8] = test: Phototoxicity against human MDA-MB-231 cells assessed as inhibition of cell viability incubated with compound for 2 hrs followed by irradiation with 0.92 mW cm'-2 light and measured after overnight incubation by CellTiter Blue assay; assay type: functional, cell-based; settings: MDA-MB-231, light or radiation study
# [9] = Drug uptake in human MDA-MB-231 cells at 1 uM incubated for 24 hrs by fluorescence imaging analysis; assay type: ADME, cell-based; settings: mda-mb-231, 24 h
compound,measurement,setting,value
CN1CC2c3nc(c(-c4c(F)c(F)c(S[C@@H]5O[C@H](CO)[C@@H](O)[C@H](O)[C@H]5O)c(F)c4F)c4ccc([nH]4)c(-c4c(F)c(F)c(S[C@@H]5O[C@H](CO)[C@@H](O)[C@H](O)[C@H]5O)c(F)c4F)c4nc(c(-c5c(F)c(F)c(S[C@@H]6O[C@H](CO)[C@@H](O)[C@H](O)[C@H]6O)c(F)c5F)c5ccc([nH]5)c3-c3c(F)c(F)c(S[C@@H]5O[C@H](CO)[C@@H](O)[C@H](O)[C@H]5O)c(F)c3F)C=C4)C2C1 (some centres undefined),Drug uptake,[1],Active
same,Drug uptake,[2],Active
same,Drug uptake,[3],Active
same,Drug uptake,[4],Active
same,pIC50,MCF7 [5],< 4.00
same,pIC50,MCF7 [6],5.70 to 6.00
same,pIC50,MDA-MB-231 [7],< 4.00
same,pIC50,MDA-MB-231 [8],5.70 to 6.00
same,Drug uptake,[9],Active
